# Reference: the PolyMetriX glass transition set
# ± gives the standard deviation of the reports.
row,Compound,glass transition temperature [°C]
1,*N=P(*)(OCCOCCOCCOP1(OCCOCCOC)=NP(OCCOCCOC)(OCCOCCOC)=NP(OCCOCCOC)(OCCOCCOC)=N1)OCCOCCOCCOP1(OCCOCCOC)=NP(OCCOCCOC)(OCCOCCOC)=NP(OCCOCCOC)(OCCOCCOC)=N1 (repeat unit),-38.00
2,*CCCCCCCCCCCC(=O)N* (repeat unit) [Poly(dodecano-12-lactam)],38.4 ± 3.2
3,*CCOC(=O)NCCCCCCCCCCNC(=O)O* (repeat unit),60.80
4,*CC(*)C(=O)NC(C)(C)C (repeat unit) [Poly(N-tert-butyl acrylamide)],131.42 ± 5.1
5,*CC(*)(C)C(=O)OCCn1c2ccccc2c2cc(/N=N/c3ccc([N+](=O)[O-])cc3[N+](=O)[O-])ccc21 (repeat unit),182.00
6,*/C=C/C1CC(*)C2C(=O)N(CCCCC)C(=O)C12 (repeat unit),99.00
7,*Oc1ccc(S(=O)(=O)c2ccc(Oc3c(C)cc(C(c4cc(C)c(*)c(C)c4)(C(F)(F)F)C(F)(F)F)cc3C)cc2)cc1 (repeat unit),248.00
8,*c1ccc2c(c1)C(=O)N(c1c(C)cc(C(c3ccccc3)(c3cc(C)c(N4C(=O)c5ccc(C(*)(C(F)(F)F)C(F)(F)F)cc5C4=O)c(C(C)C)c3)C(F)(F)F)cc1C(C)C)C2=O (repeat unit),289.00
9,*C(=O)c1ccc2c(c1)C(=O)N(c1ccccc1Cc1ccccc1N1C(=O)c3ccc(*)cc3C1=O)C2=O (repeat unit),285.00
10,*/C=C/C1CC(*)C(C#N)C1 (repeat unit),140.00
11,*Nc1cc(NC(=O)c2cccc(C(*)=O)c2)cc(C(=O)OCCOc2ccc(/C=C/C(=O)c3ccccc3)cc2)c1 (repeat unit),216.00
12,*CCCCCSS* (repeat unit),-72.00
13,*Oc1cccc(NC(=O)c2cc(C(=O)Nc3ccc(*)cc3)cc(C(F)(F)C(F)(F)C(F)(F)C(F)(F)F)c2)c1 (repeat unit),230.00
14,*c1c(C)cc(-c2cc(C)c(N3C(=O)c4ccc(Oc5ccc(C(C)(C)c6ccc(Oc7ccc8c(c7)C(=O)N(*)C8=O)cc6)cc5)cc4C3=O)c(C)c2)cc1C (repeat unit),280.00
15,*Oc1ccc2c(c1)C(C)(c1ccc(OC(=O)c3ccc(C(*)=O)cc3)cc1)CC2(C)C (repeat unit),252.50
16,*O[Si](*)(C)CCCOCC1COC(=O)O1 (repeat unit),-25.90
17,*CC(*)(C)C(=O)OCc1ccccc1 (repeat unit) [Poly(benzyl methacrylate)],54.00 ± 0.5
18,*Oc1cc(CCCCCCCC)cc(OC(=O)c2cccc(C(*)=O)c2)c1 (repeat unit),50.50

row,Compound,glass transition temperature [°C]
1,*CC(*)c1cc(C(=O)OC)ccc1-c1ccc(OCCCCCCCC)cc1 (repeat unit),126.00
2,*Oc1ccc(P(=O)(c2ccccc2)c2ccc(Oc3ccc(C(c4ccc(*)cc4)(C(F)(F)F)C(F)(F)F)cc3)cc2)cc1 (repeat unit),210.50
3,*CCCCCCNC(=O)CCC(C)(C)c1ccc(C(C)(C)CCC(=O)N*)cc1 (repeat unit),93.2
4,*OP(=O)(Oc1ccc(OC)cc1)Oc1c(C)cc(S(=O)(=O)c2cc(C)c(*)c(C)c2)cc1C (repeat unit),147.00
5,*c1ccc(NC(=O)c2ccc(NC(=O)c3ccc([Si](C)(C)c4ccc(C(=O)Nc5ccc(C(=O)Nc6ccc(S(*)(=O)=O)cc6)cc5)cc4)cc3)cc2)cc1 (repeat unit),315.00
6,*CCC[Si](*)(C[Si](C)(C)c1ccccc1)C[Si](C)(C)c1ccccc1 (repeat unit),-36.00
7,*Oc1ccc2cc(Oc3ccc(S(=O)(=O)c4ccc(*)cc4)cc3)ccc2c1 (repeat unit),231.00
8,*c1ccc(Oc2ccc(C(c3ccc(Oc4ccc(N5C(=O)c6ccc(Oc7ccccc7Oc7ccc8c(c7)C(=O)N(*)C8=O)cc6C5=O)cc4C(F)(F)F)cc3)(C(F)(F)F)C(F)(F)F)cc2)c(C(F)(F)F)c1 (repeat unit),191.00
9,*CC(*)OC(=O)c1ccc(C(C)C)cc1 (repeat unit),67.70
10,*Oc1ccc(C(c2ccc(Oc3ccc(C(=O)c4cccc5cccc(C(=O)c6ccc(*)cc6)c45)cc3)cc2)(C(F)(F)F)C(F)(F)F)cc1 (repeat unit),213.00
11,*CCCCCCNC(=O)c1ccc(C(=O)N*)cc1 (repeat unit),132.50
12,*CC(*)CCCC (repeat unit),-50.00
13,*c1cc(Br)c(-c2c(Br)cc(N3C(=O)c4ccc(-c5ccc6c(c5)C(=O)N(*)C6=O)cc4C3=O)cc2C(=O)OCCCCCCCCCC)c(C(=O)OCCCCCCCCCC)c1 (repeat unit),116.00
14,*CC(*)C(=O)OC(C(F)(F)F)C(F)(F)F (repeat unit),42.30
15,*CC(=O)NCCCCCCNC(=O)COC(=O)CCCCCCCCC(=O)O* (repeat unit),2.00
16,*CC(*)c1ccc([Si](C)(C)OC(C)C)cc1 (repeat unit),180.00
17,*CCc1cccc(*)c1 (repeat unit),9.00
18,*CCNC(=O)c1cccc(O*)c1 (repeat unit),106.00

# Further lines, results first:
row,glass transition temperature [°C],Compound
1,193.00,*C(=O)Nc1cccc2cccc(N3C(=O)CC(N4C(=O)c5ccc(*)cc5C4=O)C3=O)c12 (repeat unit)
2,60.00,*CCCCCCCCCCOC(=O)Nc1ccc(Cc2ccc(NC(=O)O*)cc2)cc1 (repeat unit)
3,66.00,*OC1CCC(OC(=O)CCCCCCCCC(*)=O)CC1 (repeat unit)
4,339.00,*c1ccc(Cc2cccc(-n3c(=O)c4cc5c(=O)n(*)c(=O)c5cc4c3=O)c2)cc1 (repeat unit)
5,115.00,*OC(=O)Oc1ccc(C(=O)Oc2ccc(OC(=O)OC3COC4C(*)COC34)cc2)cc1 (repeat unit)
6,138.00,*Cc1ccc(C(C)(C)c2ccc(Cn3c(=O)c4cc5c(=O)n(*)c(=O)c5cc4c3=O)o2)o1 (repeat unit)
7,68.00,*O[Si](C)(C)CCCC(=O)Oc1ccc(/C=N/c2ccc(Cc3ccc(/N=C/c4ccc(OC(=O)CCC[Si](*)(C)C)cc4)cc3)cc2)cc1 (repeat unit)
8,30.00,*OC(F)(F)COC(=O)c1cccc(C(F)(F)C(F)(F)C(F)(F)c2cccc(C(=O)OCC(*)(F)F)c2)c1 (repeat unit)
9,21.00,*CC(COC(=O)O*)OCCCCCCCCCCCOc1ccc(/C=C/c2ccc([N+](=O)[O-])cc2)cc1 (repeat unit)
10,395.00,*c1ccc(-c2nc3cc4nc(*)c(-c5ccccc5)nc4cc3nc2-c2ccccc2)cc1 (repeat unit)
11,248.00,*Oc1ccc(Oc2ccc(C(=O)c3ccc(*)c(S(=O)(=O)O)c3)cc2S(=O)(=O)O)cc1S(=O)(=O)O (repeat unit)
12,311.00,*C(=O)c1ccc2c(c1)C(=O)N(c1cccc(C(c3ccccc3)(c3cccc(N4C(=O)c5ccc(*)cc5C4=O)c3)C(F)(F)F)c1)C2=O (repeat unit)
13,245.00,*c1ccc(Oc2ccc(NC(=O)c3ccc(C(=O)Nc4ccc(Oc5ccc(-c6nnc(*)o6)cc5)cc4)c(Oc4ccccc4)c3)cc2)cc1 (repeat unit)
14,369.00,*C(=O)Nc1ccc(Oc2ccc(NC(=O)c3ccc4c(c3)C(=O)N(c3ccc(Oc5ccc(N6C(=O)c7ccc(*)cc7C6=O)cc5-c5ccccc5)c(-c5ccccc5)c3)C4=O)cc2-c2ccccc2)c(-c2ccccc2)c1 (repeat unit)
15,175.00,*Oc1ccc(C(C)(c2ccccc2)c2ccc(Oc3c(F)c(F)c(C(=O)c4c(F)c(F)c(*)c(F)c4F)c(F)c3F)cc2)cc1 (repeat unit)
16,-0.20,*CCCCCCOC(=O)OCCCCCOC(=O)OCCCCCCOc1ccc(C(=O)c2ccc(O*)cc2)cc1 (repeat unit)
17,203.50,*Nc1ccc(Nc2ccc(C(=O)c3ccc(C(=O)c4ccc(*)cc4)cc3)cc2)cc1 (repeat unit)
18,9.00,*CC(F)(F)C(F)(F)C(F)(F)COC(=O)c1ccc(OCCCCC)c(C(=O)O*)c1 (repeat unit)
19,301.00,*c1cccc(-n2nc(-c3ccccc3)c3cc(Oc4ccc5c(-c6ccccc6)nn(*)c(=O)c5c4)ccc3c2=O)c1C#N (repeat unit)
20,-5.00,*OC1CCC(OC(=O)OCCCCCCCOC(*)=O)CC1 (repeat unit)
21,45.00,*COC(=O)Nc1ccc(Cc2ccc(NC(=O)OCc3cocc3*)cc2)cc1 (repeat unit)
22,22.00,*Oc1ccc(CC(NC(=O)CCc2ccc(OC(=O)CCCCCCC(*)=O)cc2)C(=O)OCCCCCCCC)cc1 (repeat unit)
23,185.00,*CC(*)(C)C(=O)OC1CCCCC1C(C)(C)C (repeat unit)
24,300.00,*c1ccc(Oc2ccc(-c3nc4cc(-c5ccc6nc(-c7ccccc7)c(*)nc6c5)ccc4nc3-c3ccccc3)cc2)cc1 (repeat unit)
25,300.50,*c1ccc(Cc2ccc(N3C(=O)c4ccc(Sc5ccc6c(c5)C(=O)N(*)C6=O)cc4C3=O)c(C(C)(C)C)c2)cc1C(C)(C)C (repeat unit)
26,251.00,*Oc1ccc(S(=O)(=O)c2ccc(Oc3ccc(NC(=O)c4ccc(-c5ccc(C(=O)Nc6ccc(*)cc6)c(C)c5)cc4C)cc3)cc2)cc1 (repeat unit)
27,44.50,*CC(OCC(C)C)C(C(=O)OC)C(*)C(=O)OC (repeat unit)
28,109.00,*Cc1cc(CNC(=O)CCCCC(=O)N*)cc(C(C)(C)C)c1 (repeat unit)
29,165.00,*Oc1ccc(NC(=O)c2ccc(OC3COC4C(Oc5ccc(C(=O)Nc6ccc(OC7COC8C(*)COC78)cc6)cc5)COC34)cc2)cc1 (repeat unit)
30,264.00,*c1ccc(Oc2ccc(C(c3ccc(Oc4ccc(N5C(=O)c6ccc(Oc7ccc8c(c7)C(=O)N(*)C8=O)cc6C5=O)cc4)cc3)(C(F)(F)F)C(F)(F)F)cc2)cc1 (repeat unit)
